For the first experiment, the target named is T1, human PAH with the R408W mutation (Homo sapiens, UniProt P00439, R408W).
T1 construct: expressed in transfected cells
T1 sequence (P00439 1-452 R408W): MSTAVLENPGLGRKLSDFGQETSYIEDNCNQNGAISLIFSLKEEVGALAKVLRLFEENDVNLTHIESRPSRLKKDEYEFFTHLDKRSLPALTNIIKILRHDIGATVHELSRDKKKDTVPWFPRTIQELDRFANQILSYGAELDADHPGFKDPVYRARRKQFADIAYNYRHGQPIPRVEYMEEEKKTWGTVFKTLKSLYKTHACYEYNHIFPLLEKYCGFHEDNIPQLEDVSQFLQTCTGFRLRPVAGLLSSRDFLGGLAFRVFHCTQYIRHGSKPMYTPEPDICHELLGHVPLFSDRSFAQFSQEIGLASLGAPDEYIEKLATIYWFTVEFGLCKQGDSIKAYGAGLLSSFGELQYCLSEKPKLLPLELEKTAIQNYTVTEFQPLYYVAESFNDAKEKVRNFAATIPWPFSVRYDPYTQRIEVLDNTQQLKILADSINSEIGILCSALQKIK
Put plainly: Cell Based Phenylalanine Flux Assay. Conditions: A375 cells expressing human R408W PAH; 24 hrs compound incubation; 13C-Tyrosine by LC-MS; average where tested multiple times; read-out: AC50.
A word on the AC50: it is the concentration at which the activity in the assay is half-maximal. As to `CC(C)(F)c1nnc(C(=O)N2CCc3[nH]cnc3[C@@H]2c2nc3ccccc3s2)o1` [Example 1833, (R)-(4-(benzo[d]thiazol-2-yl)-6,7-dihydro-1H-imidazo[4,5-c]pyridin-5(4H)-yl)(5-(2-fluoropropan-2-yl)-1,3,4-oxadiazol-2-yl)methanone], the AC50 fell in the range of 1 to 5 µM. Still for that read-out and setting: with `CC(C)(O)c1nc(C(F)F)c(C(=O)N2CCc3[nH]cnc3[C@H]2c2nc3ccccc3s2)s1` [Example 2105] the figure was under 0.5 µM; with `O=C(c1cnc(-c2ccc(F)cc2)o1)N1CCc2[nH]cnc2[C@@H]1c1nc2ccccc2s1` [Example 2118, (R)-(4-(benzo[d]thiazol-2-yl)-6,7-dihydro-1H-imidazo[4,5-c]pyridin-5(4H)-yl)(2-(4-fluorophenyl)oxazol-5-yl)methanone], 1 to 5 µM. The same measure, in the same setting: with `O=C(c1oc(N2CCOCC2)nc1C(F)(F)F)N1CCCc2[nH]cnc2[C@H]1c1nc2ccccc2s1` [Example 2133, (S)-(4-(benzo[d]thiazol-2-yl)-7,8-dihydroimidazo[4,5-c]azepin-5(1H,4H,6H)-yl)(2-morpholino-4-(trifluoromethyl)oxazol-5-yl)methanone] the figure was 1 to 5 µM; with `O=C(c1cncs1)N1CCc2[nH]cnc2[C@H]1c1nc2ccccc2s1` [Example 1059], under 0.5 µM; with `O=C(CC1CC1)N1CCc2[nH]cnc2[C@@H]1c1nc2cccc(F)c2s1` [Example 1258, (R)-2-cyclopropyl-1-(4-(7-fluorobenzo[d]thiazol-2-yl)-6,7-dihydro-1H-imidazo[4,5-c]pyridin-5(4H)-yl)ethanone], 0.5 to 1 µM. Same read-out and setting: the value for `Cc1csc(C(=O)N2CCc3[nH]cnc3[C@H]2c2nc3ccccc3s2)n1` [Example 1044] was 1 to 5 µM; that for `Cc1n[nH]cc1-c1nnc(C(=O)N2CCc3[nH]cnc3[C@@H]2c2nc3ccccc3s2)o1` [Example 1942, (R)-(4-(benzo[d]thiazol-2-yl)-6,7-dihydro-1H-imidazo[4,5-c]pyridin-5(4H)-yl)(5-(3-methyl-1H-pyrazol-4-yl)-1,3,4-oxadiazol-2-yl)methanone] was 1 to 5 µM; that for `O=C(c1nnc(-c2cnn(CC(F)(F)F)c2)o1)N1CCc2[nH]cnc2[C@@H]1c1nc2ccccc2s1` [Example 1794, [(4R)-4-(1,3-benzothiazol-2-yl)-1,4,6,7-tetrahydroimidazo[4,5-c]pyridin-5-yl]-[5-[1-(2,2,2-trifluoroethyl)pyrazol-4-yl]-1,3,4-oxadiazol-2-yl]methanone] was 1 to 5 µM. Turning to `O=C(c1cnn2ccc(Cl)cc12)N1CCc2[nH]cnc2[C@H]1c1nc2ccc(F)cc2s1` [Example 1151], the AC50 was under 0.5 µM.

On to `Cc1ncoc1C(=O)N1CCCc2[nH]cnc2[C@@H]1c1nc2ccccc2s1` [Example 2130, (R)-(4-(benzo[d]thiazol-2-yl)-7,8-dihydroimidazo[4,5-c]azepin-5(1H,4H,6H)-yl)(4-methyloxazol-5-yl)methanone], for which the AC50 was over 5 µM.

With `N#Cc1ncoc1C(=O)N1CC2(CC2)c2[nH]cnc2[C@@H]1c1nc2ccccc2s1` [Example 1663, (R)-5-(4′-(benzo[d]thiazol-2-yl)-1′,4′,5′,6′-tetrahydrospiro[cyclopropane-1,7′-imidazo[4,5-c]pyridin]-5′-ylcarbonyl)oxazole-4-carbonitrile], the AC50 is over 5 µM. Still for that read-out and setting: the value for `COCc1nc(Br)c(C(=O)N2CCc3[nH]cnc3[C@H]2c2nc3c(F)cccc3s2)o1` [Example 1776] was under 0.5 µM; that for `O=C(c1cnn2ccc(Cl)cc12)N1CCc2[nH]cnc2[C@@H]1c1nc2ccccc2s1` [Example 1108, (R)-(4-(benzo[d]thiazol-2-yl)-6,7-dihydro-1H-imidazo[4,5-c]pyridin-5(4H)-yl)(5-chloropyrazolo[1,5-a]pyridin-3-yl)methanone] was 1 to 5 µM. Still for that read-out and setting: the value for `Cc1nc(CCCN2CCOCC2)oc1C(=O)N1CCc2[nH]cnc2[C@H]1c1nc2ccccc2s1` [Example 1701] was under 0.5 µM; that for `O=C(CC1CC1)N1CCc2[nH]cnc2[C@H]1c1nc2ccc(Br)cc2s1` [Example 1148, (S)-1-(4-(6-bromobenzo[d]thiazol-2-yl)-6,7-dihydro-1H-imidazo[4,5-c]pyridin-5(4H)-yl)-2-cyclopropylethanone] was under 0.5 µM; that for `O=C(N1CCc2[nH]cnc2[C@H]1c1nc2ccccc2s1)C(F)(F)C1CC1` [Example 1253] was 0.5 to 1 µM.

Regarding “(S)-(4-(benzo[d]thiazol-2-yl)-6,7-dihydro-1H)-imidazo[4,5-c]pyridin-5(4H)-yl)(6-bromopyrazolo[1,5-a]pyridin-3-yl)methanone [Example 1045]”, the AC50 was 0.5 to 1 µM. Regarding `Cn1cc(-c2ncc(C(=O)N3CCc4[nH]cnc4[C@@H]3c3nc4c(F)cccc4s3)o2)cn1` [Example 1345, (R)-(4-(4-fluorobenzo[d]thiazol-2-yl)-6,7-dihydro-1H-imidazo[4,5-c]pyridin-5(4H)-yl)(2-(1-methyl-1H-pyrazol-4-yl)oxazol-5-yl)methanone], the half-maximal activity concentration (AC50) lay in the range of 1 to 5 µM. Same read-out and setting: with `O=C(c1ocnc1C(F)(F)F)N1CC2(CC2)c2[nH]cnc2[C@H]1c1nc2ccccc2s1` [Example 1668, (S)-(4′-(benzo[d]thiazol-2-yl)spiro[cyclopropane-1,7′-imidazo[4,5-c]pyridin]-5′(1′H,4′H,6′H)-yl)(4-(trifluoromethyl)oxazol-5-yl)methanone] the figure was under 0.5 µM. Still for that read-out and setting: the value for `CC(O)c1nc(Cl)c(C(=O)N2CCc3[nH]cnc3[C@@H]2c2nc3c(F)cccc3s2)o1` (single isomer, unassigned) [Example 2081] was 1 to 5 µM; that for `O=C(c1oc(NC2CC2)nc1C(F)(F)F)N1CCc2[nH]cnc2[C@H]1c1nc2ccccc2s1` [Example 1559] was under 0.5 µM.

On to `O=C(c1nnc(-c2ccc(F)cn2)o1)N1CCc2[nH]cnc2[C@H]1c1nc2ccccc2s1` (single isomer, unassigned) [Example 1365], for which the AC50 was under 0.5 µM.

Take `O=C(c1oc(C2CC2)nc1C(F)F)N1CCc2[nH]cnc2[C@H]1c1nc2c(F)cccc2s1` [Example 1571, (S)-(2-cyclopropyl-4-(difluoromethyl)oxazol-5-yl)(4-(4-fluorobenzo[d]thiazol-2-yl)-6,7-dihydro-1H-imidazo[4,5-c]pyridin-5(4H)-yl)methanone]: the AC50 was under 0.5 µM.

Turning to `CC(=O)Cn1cc(C(=O)N2CCc3[nH]cnc3[C@H]2c2nc3c(F)cccc3s2)c(Cl)n1` [Example 1991, (S)-1-(3-chloro-4-(4-(4-fluorobenzo[d]thiazol-2-yl)-4,5,6,7-tetrahydro-1H-imidazo[4,5-c]pyridine-5-carbonyl)-1H-pyrazol-1-yl)propan-2-one], the AC50 is under 0.5 µM. Take `CC(=O)Cn1cc(C(=O)N2CCc3[nH]cnc3[C@@H]2c2nc3c(F)cccc3s2)c(Cl)n1` [Example 1992, (R)-1-(3-chloro-4-(4-(4-fluorobenzo[d]thiazol-2-yl)-4,5,6,7-tetrahydro-1H-imidazo[4,5-c]pyridine-5-carbonyl)-1H-pyrazol-1-yl)propan-2-one]: the AC50 is over 5 µM. On the same count and under the same terms, the value for `CC(C)(C)CCC(=O)N1CCc2[nH]cnc2[C@@H]1c1nc2ccc(Br)cc2[nH]1` [Example 943, (R)-1-(4-(6-bromo-1H-benzo[d]imidazol-2-yl)-6,7-dihydro-1H-imidazo[4,5-c]pyridin-5(4H)-yl)-4,4-dimethylpentan-1-one] was 1 to 5 µM; that for `O=C(c1cnn2ccccc12)N1CCc2[nH]cnc2[C@@H]1c1nc2ccc(F)cc2s1` [Example 1100, (R)-(4-(6-fluorobenzo[d]thiazol-2-yl)-6,7-dihydro-1H-imidazo[4,5-c]pyridin-5(4H)-yl)(pyrazolo[1,5-a]pyridin-3-yl)methanone] was over 5 µM. Same read-out and setting: the value for `O=C(c1cnc(C2CC2)o1)N1CCc2[nH]cnc2[C@H]1c1nc2ccccc2s1` [Example 1187] was 0.5 to 1 µM.

The same experiment, now with this note: A375 cells expressing human R408W PAH; 24 hrs with compound; 13C-Tyrosine by LC-MS; average where tested multiple times; read-out: AC50.
With `COc1cccc(C(=O)N2CCc3[nH]cnc3[C@H]2c2nc3ccccc3[nH]2)c1` [(S)-(4-(1H-benzo[d]imidazol-2-yl)-1,4,6,7-tetrahydro-5H-imidazo[4,5-c]pyridin-5-yl)(3-methoxyphenyl)methanone], the AC50 fell in the range of 1 to 5 µM. For the compound `Cc1nnc(N2CCc3[nH]cnc3C2c2nc3ccccc3[nH]2)o1` (centres unmarked), the AC50 is over 5 µM.

As to `CC(C)(O)c1nsc(C(=O)N2CCc3[nH]cnc3C2c2nc3c(F)cccc3s2)n1` (centres unmarked), the AC50 is over 5 µM.

As for `Cc1nnc(CC(=O)N2CCc3[nH]cnc3[C@H]2c2nc3ccccc3s2)s1` (single isomer, unassigned), the AC50 lay in the range of 1 to 5 µM. With `CC(C)(O)c1cc(C(=O)N2CCc3[nH]cnc3C2c2nc3c(F)cccc3s2)no1` (centres unmarked), the AC50 is over 5 µM. Turning to `Cc1nnc(CCC(=O)N2CCc3[nH]cnc3C2c2nc3ccc(Cl)cc3[nH]2)s1` (centres unmarked), the AC50 was in the range of 1 to 5 µM. As for `O=C(c1nncs1)N1CCc2[nH]cnc2C1c1nc2ccc(F)cc2s1` (centres unmarked), the AC50 is over 5 µM. For the compound `O=C(C1CC1F)N1CCc2[nH]cnc2C1c1nc2ccccc2s1` (centres unmarked), the AC50 was over 5 µM.

For the compound `Cn1ncc(C(=O)N2CCc3[nH]cnc3C2c2nc3ccccc3s2)n1` (centres unmarked), the AC50 is 1 to 5 µM. Same read-out and setting: the value for `Cn1ccc(C(=O)N2CCc3[nH]cnc3C2c2nc3ccccc3s2)n1` (centres unmarked) was 1 to 5 µM. On the same count and under the same terms, with `O=C(C1CC1)N1CCc2[nH]cnc2C1c1nc2ccc(F)cc2s1` (centres unmarked) the figure was over 5 µM; with `O=C(c1ocnc1-c1ccccn1)N1CCCc2[nH]cnc2C1c1nc2ccccc2s1` (centres unmarked), over 5 µM.

For the origin of these results see patent US20250171438A1 (Agios Pharmaceuticals, Inc., priority 2022, published 2025).
